The target in the experiment is T1, 14-3-3ζ (Homo sapiens, UniProt P63104).
T1 construct: Full-length expression and purification of 14-3-3; made in house; host or cells: E. coli BL21 (DE3)STAR
T1 sequence (P63104 1-245): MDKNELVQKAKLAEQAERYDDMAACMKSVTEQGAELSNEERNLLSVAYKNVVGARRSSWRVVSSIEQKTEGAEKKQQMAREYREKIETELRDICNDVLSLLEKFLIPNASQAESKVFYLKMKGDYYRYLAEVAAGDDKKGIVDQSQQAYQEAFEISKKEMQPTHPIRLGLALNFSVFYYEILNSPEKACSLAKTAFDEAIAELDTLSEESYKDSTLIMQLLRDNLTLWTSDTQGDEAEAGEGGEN
Kind of experiment: FP assay with GR phosphorylated peptides and 14-3-3ζ. Format: binding. The method in brief:
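Fluorescence polarization (ex 485/em 520 nm) was read in triplicate after 30-min RT incubation. Binding data were fitted to a standard Hill equation and expressed in mP units. The dynamic range (ΔmP) is the difference between bound and free peptide signals.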

[1] abbreviates: FITC-labeled peptide 60 nM (monophosphorylated) or 10 nM (doubly phosphorylated) titrated with 14-3-3ζ, 30 min RT, Hill fit, triplicates, read-out: Kd with 14-3-3ζ by FP.

Where two headings read alike, the source gives them in different places. Non-standard residues stand in square brackets, D forms with d. Residues, ends and D or L forms follow the SMILES beside them. *: point of attachment. 6FAM = O=C1OC2(c3ccc(O)cc3Oc3cc(O)ccc32)c2cc(C(=O)*)ccc21; pT = C[C@@H](OP(=O)(O)O)[C@H](N)C(=O)O; pS = N[C@@H](COP(=O)(O)O)C(=O)O

In the case of `CC[C@H](C)[C@H](NC(=O)[C@@H](NC(=O)[C@@H](N)CCCCN)[C@@H](C)O)C(=O)N[C@H](C(=O)N1CCC[C@H]1C(=O)N[C@@H](C)C(=O)N[C@H](C(=O)N[C@@H](CC(C)C)C(=O)N1CCC[C@H]1C(=O)N[C@@H](CCC(N)=O)C(=O)N[C@@H](CC(C)C)C(=O)N[C@H](C(=O)N1CCC[C@H]1C(=O)NCC(=O)NCC(=O)NCC(=O)NCC(=O)NCC(=O)N[C@@H](CCCNC(=N)N)C(=O)N[C@@H](CO)C(=O)N[C@@H](C)C(=O)N[C@@H](CCCNC(=N)N)C(=O)N[C@@H](CCC(N)=O)C(=O)N[C@@H](CO)C(=O)N[C@@H](COP(=O)(O)O)C(=O)N[C@@H](C)C(=O)N[C@@H](CC(N)=O)C(=O)N[C@@H](CC(C)C)C(=O)N[C@@H](CC(C)C)C(=O)N[C@@H](CS)C(=O)N[C@@H](Cc1ccccc1)C(=O)O)[C@@H](C)O)[C@@H](C)OP(=O)(O)O)C(C)C` [GR_Y613A] (H-KTIVPA[pT]LPQLTPGGGGGRSARQS[pS]ANLLCF-OH), the Kd (read-out: PKd with 14-3-3ζ (converted)) was 0.0794 µM.

Turning to `CC(C)C[C@H](NC(=O)[C@H](CO)NC(=O)[C@@H]1CCCN1C(=O)[C@H](COP(=O)(O)O)NC(=O)[C@H](CO)NC(=O)[C@H](C)NC(=O)[C@H](CO)NC(=O)[C@@H](NC(=O)[C@H](CCCCN)NC(=O)[C@@H](N)C(C)C)C(C)C)C(=O)N[C@@H](C)C(=O)N[C@H](C(=O)N[C@@H](C)C(=O)O)C(C)C` [GR_pS45] (H-VKVSAS[pS]PSLAVA-OH; N-terminus assumed), under setting [1], the Kd was over 150 µM.

For the compound `CSCC[C@H](NC(=O)[C@H](CO)NC(=O)[C@H](CC(C)C)NC(=O)[C@H](COP(=O)(O)O)NC(=O)[C@@H](NC(=O)[C@H](C)NC(=O)[C@H](CCCCN)NC(=O)[C@H](CO)NC(=O)[C@H](CC(C)C)NC(=O)[C@H](CC(=O)O)NC(=O)c1ccc2c(c1)C1(OC2=O)c2ccc(O)cc2Oc2cc(O)ccc21)C(C)C)C(=O)NCC(=O)N[C@@H](CC(C)C)C(=O)N[C@@H](Cc1ccc(O)cc1)C(=O)NCC(=O)NCC(=O)NCC(=O)NCC(=O)NCC(=O)N[C@@H](CC(N)=O)C(=O)N[C@@H](CC(C)C)C(=O)N[C@@H](CC(N)=O)C(=O)N[C@@H](CCCNC(=N)N)C(=O)N[C@@H](CO)C(=O)N[C@H](C(=O)N[C@@H](COP(=O)(O)O)C(=O)N[C@H](C(=O)N1CCC[C@H]1C(=O)N[C@@H](CCC(=O)O)C(=O)N[C@@H](CC(N)=O)C(=O)N1CCC[C@H]1C(=O)N[C@@H](CCCCN)C(=O)O)C(C)C)[C@@H](C)O` [GR_pS83-pS134] (6FAM-DLSKAV[pS]LSMGLYGGGGGNLNRST[pS]VPENPK-OH; C-terminus assumed), under setting [1], the Kd was 22 ± 8 µM. In addition, under “ratio of Kd values”, the “fold decrease in binding affinity with 14-3-3ζ relative to GR_pT524-pS617” value is on record as “at least 15 fold”.

For `CC[C@H](C)[C@H](NC(=O)[C@H](CCC(N)=O)NC(=O)CNC(=O)[C@@H](N)CCC(N)=O)C(=O)N[C@@H](CO)C(=O)N[C@@H](CC(C)C)C(=O)N[C@@H](COP(=O)(O)O)C(=O)N[C@@H](CO)C(=O)NCC(=O)N[C@@H](CCC(=O)O)C(=O)N[C@H](C(=O)N[C@@H](CC(=O)O)C(=O)N[C@@H](CC(C)C)C(=O)O)[C@@H](C)O` [GR_pS113] (H-QGQISL[pS]SGETDL-OH; N-terminus and C-terminus assumed), the Kd under setting [1] is over 150 µM.

`CC[C@H](C)[C@H](NC(=O)[C@@H](NC(=O)[C@H](CCCCN)NC(=O)CNC(=O)CNC(=O)CNC(=O)CNC(=O)CNC(=O)[C@H](CCCCN)NC(=O)[C@@H]1CCCN1C(=O)[C@H](CC(N)=O)NC(=O)[C@H](CCC(=O)O)NC(=O)[C@@H]1CCCN1C(=O)[C@@H](NC(=O)[C@H](COP(=O)(O)O)NC(=O)[C@@H](NC(=O)[C@H](CO)NC(=O)[C@H](CCCNC(=N)N)NC(=O)[C@H](CC(N)=O)NC(=O)[C@H](CC(C)C)NC(=O)[C@H](CC(N)=O)NC(=O)c1ccc2c(c1)C1(OC2=O)c2ccc(O)cc2Oc2cc(O)ccc21)[C@@H](C)O)C(C)C)[C@@H](C)O)C(=O)N[C@H](C(=O)N1CCC[C@H]1C(=O)N[C@@H](C)C(=O)N[C@H](C(=O)N[C@@H](CC(C)C)C(=O)N1CCC[C@H]1C(=O)N[C@@H](CCC(N)=O)C(=O)N[C@@H](CC(C)C)C(=O)N[C@H](C(=O)N1CCC[C@H]1C(=O)O)[C@@H](C)O)[C@@H](C)OP(=O)(O)O)C(C)C` [GR_pS134-pT524] (6FAM-NLNRST[pS]VPENPKGGGGGKTIVPA[pT]LPQLTP-OH; C-terminus assumed): the Kd under setting [1] was determined as 0.55 µM.

Values taken from article PMC8080530, “Glucocorticoid receptor Thr524 phosphorylation by MINK1 induces interactions with 14-3-3 protein regulators” (The Journal of Biological Chemistry, 2021).
